Earlier results on 1 compound are cited in US12462914B2, “Systems and methods for dispensing a statin medication over the counter” (ASTRAZENECA UK LIMITED, priority 2016, dated 2025).

The conditions of this series: co-administration of warfarin with a single oral dose of atorvastatin.

As for `CC(C)c1c(C(=O)Nc2ccccc2)c(-c2ccccc2)c(-c2ccc(F)cc2)n1CC[C@@H](O)C[C@@H](O)CC(=O)O` [atorvastatin], the “effect on the pharmacokinetics of atorvastatin” value is “no significant effect”.
